Results published in PMC4945764, “Effect of flecainide derivatives on sarcoplasmic reticulum calcium release suggests a lack of direct action on the cardiac ryanodine receptor” (British Journal of Pharmacology, 2016).

Columns and labels:
[1] = biological target: T1, cardiac ryanodine receptor (RyR2) (Homo sapiens, UniProt Q92736); experiment: single-channel recording of purified hRyR2 in planar lipid bilayers; association and dissociation rates of block; assay type: biochemical
T1 construct: recombinant eGFP-hRyR2, purified from HEK293 cells

Nav1.5 channel [2] = biological target: T2, Nav1.5 channel (Homo sapiens, UniProt Q14524); experiment: INa recording, use-dependent block at […] Hz ([…] NU-FL); assay type: cell-based
T2 construct: gene SCN5A; recombinant Nav1.5 in HEK293 (H-Flp/Nav1.5) cells

Nav1.5 channel [3] = biological target: T2, Nav1.5 channel; experiment: INa recording, use-dependent block at […] Hz ([…] QX-FL); assay type: cell-based
[4] = biological target: T1, cardiac ryanodine receptor (RyR2); experiment: single-channel recording of purified hRyR2 in planar lipid bilayers, +[…] mV, cytosolic to luminal K+ current; assay type: biochemical

T1 sequence (Q92736 whole entry): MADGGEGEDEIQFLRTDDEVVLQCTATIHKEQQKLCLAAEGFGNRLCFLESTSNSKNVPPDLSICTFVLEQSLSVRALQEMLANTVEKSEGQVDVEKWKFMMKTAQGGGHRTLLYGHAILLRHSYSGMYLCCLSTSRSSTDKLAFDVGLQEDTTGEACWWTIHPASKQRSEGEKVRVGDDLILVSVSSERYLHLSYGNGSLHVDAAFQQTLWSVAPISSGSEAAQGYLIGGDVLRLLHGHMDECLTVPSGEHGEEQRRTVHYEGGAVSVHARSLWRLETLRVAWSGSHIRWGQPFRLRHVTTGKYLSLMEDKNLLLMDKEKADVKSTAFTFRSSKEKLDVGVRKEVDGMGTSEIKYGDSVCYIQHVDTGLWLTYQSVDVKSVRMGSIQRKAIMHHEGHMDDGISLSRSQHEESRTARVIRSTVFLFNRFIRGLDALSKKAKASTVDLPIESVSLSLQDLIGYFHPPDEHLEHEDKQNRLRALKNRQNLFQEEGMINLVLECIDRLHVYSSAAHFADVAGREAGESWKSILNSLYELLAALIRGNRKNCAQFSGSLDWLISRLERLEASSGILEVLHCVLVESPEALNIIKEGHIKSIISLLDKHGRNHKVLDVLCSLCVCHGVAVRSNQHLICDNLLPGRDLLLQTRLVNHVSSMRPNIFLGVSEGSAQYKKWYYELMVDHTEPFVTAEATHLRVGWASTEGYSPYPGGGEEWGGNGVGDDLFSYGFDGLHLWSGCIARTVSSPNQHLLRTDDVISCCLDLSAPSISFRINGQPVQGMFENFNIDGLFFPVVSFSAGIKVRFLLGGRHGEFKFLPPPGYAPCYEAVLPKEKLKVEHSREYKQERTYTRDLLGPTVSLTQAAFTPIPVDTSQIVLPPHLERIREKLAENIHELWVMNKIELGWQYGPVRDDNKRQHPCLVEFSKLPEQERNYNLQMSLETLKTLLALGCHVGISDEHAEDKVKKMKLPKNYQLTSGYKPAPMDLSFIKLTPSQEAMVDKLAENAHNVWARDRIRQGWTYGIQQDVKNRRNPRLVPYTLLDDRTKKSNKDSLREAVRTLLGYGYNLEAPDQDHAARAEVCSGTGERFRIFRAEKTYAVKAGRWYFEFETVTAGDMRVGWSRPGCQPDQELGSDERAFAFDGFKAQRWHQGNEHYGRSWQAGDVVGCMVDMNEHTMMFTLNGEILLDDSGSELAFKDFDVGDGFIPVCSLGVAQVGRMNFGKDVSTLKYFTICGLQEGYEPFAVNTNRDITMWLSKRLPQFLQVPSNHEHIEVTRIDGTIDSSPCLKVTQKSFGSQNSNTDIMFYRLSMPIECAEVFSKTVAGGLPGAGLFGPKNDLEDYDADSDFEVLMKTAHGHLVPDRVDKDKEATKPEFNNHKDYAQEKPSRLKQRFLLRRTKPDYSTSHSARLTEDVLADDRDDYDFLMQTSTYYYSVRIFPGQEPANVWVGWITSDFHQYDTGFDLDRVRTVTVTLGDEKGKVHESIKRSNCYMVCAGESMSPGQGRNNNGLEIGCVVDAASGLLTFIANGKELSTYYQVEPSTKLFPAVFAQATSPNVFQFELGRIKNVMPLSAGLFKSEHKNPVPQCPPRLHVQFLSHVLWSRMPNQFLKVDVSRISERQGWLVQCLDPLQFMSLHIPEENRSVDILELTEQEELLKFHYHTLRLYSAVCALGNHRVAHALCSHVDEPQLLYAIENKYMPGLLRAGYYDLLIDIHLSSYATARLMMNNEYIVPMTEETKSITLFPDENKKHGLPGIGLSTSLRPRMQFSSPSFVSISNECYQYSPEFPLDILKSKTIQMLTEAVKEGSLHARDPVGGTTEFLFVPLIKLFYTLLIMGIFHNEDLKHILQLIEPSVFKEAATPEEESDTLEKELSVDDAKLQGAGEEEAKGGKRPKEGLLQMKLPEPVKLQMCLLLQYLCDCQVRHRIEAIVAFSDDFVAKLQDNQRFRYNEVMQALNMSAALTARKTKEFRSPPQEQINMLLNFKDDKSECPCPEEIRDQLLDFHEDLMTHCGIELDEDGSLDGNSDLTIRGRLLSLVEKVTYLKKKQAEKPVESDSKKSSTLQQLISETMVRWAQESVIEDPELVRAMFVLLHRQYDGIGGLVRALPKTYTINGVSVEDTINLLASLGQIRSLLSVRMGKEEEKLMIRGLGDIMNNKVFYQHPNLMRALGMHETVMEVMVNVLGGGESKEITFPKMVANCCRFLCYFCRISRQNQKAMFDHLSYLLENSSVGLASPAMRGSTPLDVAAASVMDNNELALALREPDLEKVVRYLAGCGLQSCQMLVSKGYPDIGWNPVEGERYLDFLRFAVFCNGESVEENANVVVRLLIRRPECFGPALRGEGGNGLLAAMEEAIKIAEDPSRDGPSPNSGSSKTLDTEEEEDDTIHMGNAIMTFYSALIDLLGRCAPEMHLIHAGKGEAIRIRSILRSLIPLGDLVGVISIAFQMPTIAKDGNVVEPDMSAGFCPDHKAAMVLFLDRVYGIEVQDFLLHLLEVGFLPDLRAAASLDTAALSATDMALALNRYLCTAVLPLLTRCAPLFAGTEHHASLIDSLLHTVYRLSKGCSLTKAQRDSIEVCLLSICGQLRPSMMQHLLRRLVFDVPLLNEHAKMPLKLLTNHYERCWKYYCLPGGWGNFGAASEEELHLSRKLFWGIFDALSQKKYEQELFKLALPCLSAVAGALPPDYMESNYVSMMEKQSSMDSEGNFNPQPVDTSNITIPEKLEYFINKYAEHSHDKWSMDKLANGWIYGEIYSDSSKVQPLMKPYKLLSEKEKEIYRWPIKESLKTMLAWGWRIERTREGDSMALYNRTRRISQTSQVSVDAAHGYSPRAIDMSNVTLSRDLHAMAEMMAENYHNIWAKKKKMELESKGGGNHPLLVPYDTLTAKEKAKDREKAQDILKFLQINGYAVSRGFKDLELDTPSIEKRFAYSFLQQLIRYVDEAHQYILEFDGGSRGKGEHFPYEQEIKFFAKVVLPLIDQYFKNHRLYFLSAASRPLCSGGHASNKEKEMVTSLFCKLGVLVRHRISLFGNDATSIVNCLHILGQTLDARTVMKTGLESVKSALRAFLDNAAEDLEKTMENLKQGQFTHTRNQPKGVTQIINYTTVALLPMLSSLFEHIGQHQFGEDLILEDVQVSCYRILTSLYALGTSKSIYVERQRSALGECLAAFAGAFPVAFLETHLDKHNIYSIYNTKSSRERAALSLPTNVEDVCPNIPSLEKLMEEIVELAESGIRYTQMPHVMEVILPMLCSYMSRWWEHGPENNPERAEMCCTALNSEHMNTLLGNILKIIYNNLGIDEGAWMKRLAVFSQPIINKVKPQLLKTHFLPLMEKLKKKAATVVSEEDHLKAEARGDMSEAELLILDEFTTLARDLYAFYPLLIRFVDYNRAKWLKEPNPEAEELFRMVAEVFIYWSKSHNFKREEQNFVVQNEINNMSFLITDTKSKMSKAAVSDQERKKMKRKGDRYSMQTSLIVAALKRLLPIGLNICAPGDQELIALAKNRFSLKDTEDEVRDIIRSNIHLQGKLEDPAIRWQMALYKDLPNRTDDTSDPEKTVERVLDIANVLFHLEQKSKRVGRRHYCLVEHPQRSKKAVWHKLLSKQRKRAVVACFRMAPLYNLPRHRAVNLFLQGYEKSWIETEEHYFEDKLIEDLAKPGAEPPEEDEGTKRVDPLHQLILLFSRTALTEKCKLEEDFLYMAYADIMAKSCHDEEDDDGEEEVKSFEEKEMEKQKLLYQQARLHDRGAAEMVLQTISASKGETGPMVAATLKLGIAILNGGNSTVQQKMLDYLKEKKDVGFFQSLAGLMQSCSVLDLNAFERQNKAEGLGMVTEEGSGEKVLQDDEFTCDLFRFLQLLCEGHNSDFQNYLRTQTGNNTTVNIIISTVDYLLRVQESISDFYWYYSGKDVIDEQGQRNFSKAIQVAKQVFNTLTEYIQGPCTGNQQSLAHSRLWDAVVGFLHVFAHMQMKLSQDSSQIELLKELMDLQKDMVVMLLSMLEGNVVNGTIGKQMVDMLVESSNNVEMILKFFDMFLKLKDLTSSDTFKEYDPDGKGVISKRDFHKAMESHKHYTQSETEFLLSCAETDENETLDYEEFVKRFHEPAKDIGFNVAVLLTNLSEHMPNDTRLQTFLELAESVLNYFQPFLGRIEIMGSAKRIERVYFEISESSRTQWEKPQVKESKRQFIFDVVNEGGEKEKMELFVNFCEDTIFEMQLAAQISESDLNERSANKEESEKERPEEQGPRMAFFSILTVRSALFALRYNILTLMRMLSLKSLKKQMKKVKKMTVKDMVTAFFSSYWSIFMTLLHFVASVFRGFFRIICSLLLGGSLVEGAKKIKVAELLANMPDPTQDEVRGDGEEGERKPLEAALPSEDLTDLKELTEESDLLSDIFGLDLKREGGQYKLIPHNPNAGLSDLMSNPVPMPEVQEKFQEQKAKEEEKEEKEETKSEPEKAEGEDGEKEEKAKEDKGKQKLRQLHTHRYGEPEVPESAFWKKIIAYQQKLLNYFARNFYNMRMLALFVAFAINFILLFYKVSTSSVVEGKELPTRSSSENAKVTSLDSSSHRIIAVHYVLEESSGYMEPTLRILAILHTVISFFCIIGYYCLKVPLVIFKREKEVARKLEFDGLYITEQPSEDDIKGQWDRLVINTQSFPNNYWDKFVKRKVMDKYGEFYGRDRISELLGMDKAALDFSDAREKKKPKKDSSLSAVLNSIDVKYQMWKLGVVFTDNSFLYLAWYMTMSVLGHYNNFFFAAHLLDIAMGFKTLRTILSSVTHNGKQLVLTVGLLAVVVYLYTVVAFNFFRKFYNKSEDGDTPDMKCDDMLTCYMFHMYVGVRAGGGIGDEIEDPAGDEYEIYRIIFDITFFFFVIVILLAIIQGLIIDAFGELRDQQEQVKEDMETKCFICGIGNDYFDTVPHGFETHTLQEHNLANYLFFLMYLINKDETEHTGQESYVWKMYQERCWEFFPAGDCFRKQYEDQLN

Row | Structure (SMILES) | kon [1] | INa recording, use-dependent block at 10 Hz (10 and 100 μM NU-FL) (Nav1.5 channel [2]) | INa recording, use-dependent block at 10 Hz (10 μM QX-FL) (Nav1.5 channel [3]) | Kd [4]
1 | O=C(NCCN1CCOCC1)c1cc(OCC(F)(F)F)ccc1OCC(F)(F)F [NU-FL] | 6.2e+08 ± 5e+07 M⁻¹ s⁻¹ | Use‐dependent block (UDB) of voltage gated Na^+ channel current (INa) by flecainide analogues, NU‐FL and QX‐FL. | – | –
2 | C[N+]1(C)CCCCC1CNC(=O)c1cc(OCC(F)(F)F)ccc1OCC(F)(F)F (centres unmarked) [QX-FL] | 9.1e+08 ± 3e+07 M⁻¹ s⁻¹ | – | Use‐dependent block (UDB) of voltage gated Na^+ channel current (INa) by flecainide analogues, NU‐FL and QX‐FL. | –
3 | O=C(NCC1CCCCN1)c1cc(OCC(F)(F)F)ccc1OCC(F)(F)F (centres unmarked) [flecainide] | – | – | – | 13.1 ± 1.89 µM
